Measured values taken from patent US20250345317A1, “New pharmaceutical compounds, methods and uses thereof” (BBIT-THERAPEUTICS, LDA., priority 2020, published 2025).

Tests used:
[1] = tested on: ovarian and endocervical cancer cells (OCVAR, SKOV-3, SK-BR-3, IGROV-1 and HeLa); assay: Growth inhibition, panel of ovarian and endocervical cancer cells; type: cell-based; settings: Homo sapiens, range over OCVAR, 48 hours
Experimental: (§1) In an embodiment, the activity of COMP compound was tested in an array of human normal and cancer cell lines (Table 2, FIG. 2).
(§2) Table 2 refers to the growth inhibitory effect of COMP, olaparib and cisplatin (CDDP) in a panel of human immortalized breast (T47D, MCF-7, MDA-MB-231, MDA-MB-468, SK-BR-3 and HCC1937), ovarian and endocervical (OCVAR, SKOV-3, […],IGROV-1 and HeLa), pancreatic (PANC-1 and MIAPACA), neuroblastoma (SHSY-5Y), lung (NCI-H460), prostate (VCaP) melanoma (A375 and SK-MEL-5) and glioblastoma (SF-208) cancer cells, immortalized normal MCF10a and HFF1 human cells, and patient-derived ovarian (PD-OVCA #1, #9, #41, #49 and #62) cancer cells. […] Data are mean±SEM (n=5).
(§3) In an embodiment, IC50 values were determined by Sulforhodamine B (SRB) or MTS [3-(4,5-dimethylthiazol-2-yl)-5-(3-carboxymethoxyphenyl)-2-(4-sulfophenyl)-2H-tetrazolium] assay in immortalized and PD-OVCA cells, respectively. Cancer cells were plated in 96-well plates and incubated for 24 hours. Cells were then exposed to serial dilutions of compounds for 48 hours. The solvent DMSO corresponding to the maximum concentration used in these assays (0.025%) was included as control. Results are the mean±S.E.M. of 3-5 independent experiments.

[2] = tested on: pancreatic cancer cells (PANC-1 and MIAPACA); assay: Growth inhibition, pancreatic cancer cells; type: cell-based; settings: Homo sapiens, Pancreatic cancer cell, 48 hours
Experimental: as §1, §2, §3

SK-MEL-5 = assay: Growth inhibition, SRB assay, SK-MEL-5; type: cell-based; settings: Homo sapiens, SK-MEL-5, wild-type BRCA1/2, 48 hours
Description: as §2, §3

[3] = tested on: triple-negative breast cancer and ovarian cancer cells (MDA-MB-231, IGROV-1, HCC1937); assay: Colony-formation assay; type: cell-based, human; settings: 8 days (MDA-MB-231 and IGROV-1), 16 days (HCC1937) of treatment
Experimental: FIG. 4 illustrates the effect of COMP on (A-B) colony formation of cancer cells after 8 days (MDA-MB-231 and IGROV-1) and 16 days (HCC1937) of treatment. In FIG. 4A, representative experiments are shown.
In an embodiment, colony-formation assay was performed.

MDA-MB-468 = assay: Growth inhibition, SRB assay, MDA-MB-468; type: cell-based, human; settings: Homo sapiens, MDA-MB-468, 48 h
Description: as §2, §3

[4] = tested on: MDA-MB-231, HCC1937 and IGROV-1 cells; assay: Combination with CDDP or olaparib, SRB assay; type: cell-based, human; settings: single concentration of COMP with concentration range of CDDP or olaparib, 48 hours; CI<1, synergy
Experimental: FIG. 13 illustrates that COMP sensitizes triple-negative breast cancer and ovarian cancer cells to the effect of cisplatin (CDDP) and olaparib. Cells were treated with a concentration range of CDDP and olaparib alone and in combination with a single concentration of COMP (with no significant effect on cells growth) in MDA-MB-231 (FIG. 13A), HCC1937 (FIG. 13B) and IGROV-1 (FIG. 13C). Cell proliferation was measured by SRB assay after 48 hours of treatment; growth obtained with control (DMSO) was set as 100%. […] Combination index (CI) and dose-reduction index (DRI) for each combined treatment were calculated using CompuSyn software (CI<1, synergy; 1<CI<1.1, addictive effect; CI>1.1, antagonism); data were calculated using a mean value effect of six independent experiments.
In an embodiment, COMP sensitizes triple-negative breast cancer and ovarian cancer cells to the effect of CDDP and olaparib as shown by the enhancement of the growth inhibitory effect and promising synergistic effects between COMP and CDDP or olaparib (CI<1), with a noticeable reduction in the effective dose of chemotherapeutic agents (FIGS. 13A-C).

HCC1937 (5382insC) = assay: Growth inhibition, SRB assay, HCC1937; type: cell-based, human; settings: Homo sapiens, HCC1937, 48 h
Description: as §2, §3

[5] = tested on: triple-negative breast cancer and ovarian cancer cells; assay: ROS generation (H2DCFDA flow cytometry); type: cell-based, human; settings: 6 and 12 μM, 48 hours
Experimental: Cell cycle phases were analysed by flow cytometry using propidium iodide (PI) and quantified using the FlowJo software. Apoptosis and ROS were analysed by flow cytometry using FITC-Annexin V/PI and 2′,7′-dichlorodihydrofluorescein diacetate (H2DCFDA) respectively.

A375 = assay: Growth inhibition, SRB assay, A375; type: cell-based; settings: Homo sapiens, A-375, A375, wild-type BRCA1/2, 48 hours
Description: as §2, §3

T47D = assay: Growth inhibition, SRB assay, T47D; type: cell-based, human; settings: Homo sapiens, 48 h
Description: as §2, §3

[6] = tested on: patient-derived ovarian cancer cells; assay: Growth inhibition, patient-derived ovarian cancer cells; type: cell-based; settings: Homo sapiens; range over PD-OVCA cells; MTS, 48 hours
Experimental: as §1, §2, §3

HeLa = assay: Growth inhibition, SRB assay, HeLa; type: cell-based; settings: Homo sapiens, wild-type BRCA1/2, 48 hours
Description: as §2, §3

BRCA1 = BRCA1 cellular localization by immunofluorescence; type: cell-based, human; settings: 12 μM, 48 hours; MDA-MB-231, HCC1937 and IGROV-1 cells
Experimental: (§4) FIG. 10 illustrates the effect of 12 μM COMP on (A) γH2AX expression levels and on (FIG. 10B) γH2AX and RAD51 foci formation, and BRCA1 foci formation and cellular localization after 48 hours of treatment. […] FIG. 10B are representative images generated using Fiji software (scale bar=100 μm; 400 × magnification).

[7] = tested on: phosphorylated (Ser139) histone H2AX (γH2AX); assay: γH2AX expression and foci formation; type: cell-based, human; settings: 12 μM, 48 hours; MDA-MB-231, HCC1937 and IGROV-1 cells
Experimental: as §4
In an embodiment, 12 μM of COMP increased the amount of phosphorylated (Ser139) histone H2AX (γH2AX) (FIG. 10A) and the number of γH2AX-positive foci formed in MDA-MB-231, HCC1937 and IGROV-1 cells (FIG. 10B and FIG. 10C).

PD-OVCA#62 = assay: Growth inhibition, MTS assay, PD-OVCA#62; type: cell-based, human; settings: Homo sapiens, PD-OVCA#62, wild-type BRCA1/2, 48 hours
Description: as §2, §3

With `CC[C@H]1CN(C)C2Cc3c([nH]c4ccccc34)/C(=N/Nc3ccc(Br)cn3)C[C@@H]1[C@@H]2C(=O)OC` [COMP, methyl (5R,6S,14S,E)-8-(2-(5-bromopyridin-2-yl) hydrazineylidene)-5-ethyl-3-methyl-2,3,4,5,6,7,8,9-octahydro-1H-2,6-methanoazecino [5,4-b]indole-14-carboxylate] the IC50 [1] was 4.6 to 13.9 µM, the IC50 [2] was 4.5 µM and the IC50 (SK-MEL-5) was 5.65 ± 0.95 µM. For the same compound, the “colony-forming ability of cancer cells” value [3] was “significantly reduced”, the IC50 (MDA-MB-468; MDA-MB-468, BRCA1 loss of heterozigoty, 48 hours) was 4.4 ± 0.8 µM and the IC50 (MDA-MB-468; MDA-MB-468, BRCA1 loss of heterozygosity, 48 hours (second Table 2)) was 4.4 µM. The “Combination index (CI) of COMP with CDDP or olaparib” value [4] was under 1, the IC50 (HCC1937 (5382insC); HCC1937, BRCA1 mutant, 48 hours (second Table 2)) was 5.2 µM and the IC50 (HCC1937 (5382insC); HCC1937, mutant BRCA1, 48 hours) was 5.2 ± 1.3 µM. For the same compound, the ROS production [5] was “increases ROS production”, the IC50 (A375) was 15.5 ± 0.5 µM and the IC50 (T47D; BRCA1 wild-type, 48 hours (second Table 2)) was 11.5 µM. It also gave an IC50 (T47D; wild-type BRCA1/2, 48 hours) of 11.5 ± 3 µM, an IC50 [6] of 2.68 to 15.1 µM and an IC50 (HeLa) of 5.8 ± 0.8 µM. For the same compound, the BRCA1 cellular localization (BRCA1) was “triggered the nucleocytoplasmic translocation of BRCA1”, the “amount of γH2AX and number of γH2AX-positive foci” value [7] was “increased” and the IC50 (PD-OVCA#62) was 14.2 ± 2.9 µM.
